# Measured values from patent publication US20230399358A1, “IMMUNOGLOBULIN PURIFICATION PEPTIDES AND THEIR USE” (North Carolina State University, priority 2019, published 2023).
# Non-standard residues stand in square brackets, D forms with d. No end group written: not given here. Cit = NC(=O)NCCC[C@H](N)C(=O)O; Nle = CCCC[C@H](N)C(=O)O
# B1: (NorL)WRGWQ (SEQ ID NO:23) (peptide)
# peptide: [Nle]WRGWQ
# B2: WQ(Cit)HGI (SEQ ID NO:27) (peptide)
# peptide: WQ[Cit]HGI
# B3: WQRHI (SEQ ID NO:33) (peptide)
# peptide: WQRHI
# B4: MW(Cit)GWQ (SEQ ID NO:25) (peptide)
# peptide: MW[Cit]GWQ
# B5: MFRGWQ (SEQ ID NO:21) (peptide)
# peptide: MFRGWQ
# B6: MWRGWN (SEQ ID NO:22) (peptide)
# peptide: MWRGWN
# B7: WQRHGV (SEQ ID NO:10) (peptide)
# peptide: WQRHGV
# B8: WQRHAI (SEQ ID NO:11) (peptide)
# peptide: WQRHAI
# B9: MWRWQ (SEQ ID NO:6) (peptide)
# peptide: MWRWQ
# B10: FQRHGI (SEQ ID NO:29) (peptide)
# peptide: FQRHGI
# B11: WQRHGL (SEQ ID NO:9) (peptide)
# peptide: WQRHGL
# B12: MWRGFQ (SEQ ID NO:7) (peptide)
# peptide: MWRGFQ
# B13: MWRGGQ (SEQ ID NO:26) (peptide)
# peptide: MWRGGQ
# B14: WQRAGI (SEQ ID NO:28) (peptide)
# peptide: WQRAGI
# B15: WNRHGI (SEQ ID NO:12) (peptide)
# peptide: WNRHGI
# B16: MWRAWQ (SEQ ID NO:5) (peptide)
# peptide: MWRAWQ
# B17: GWRGWQ (SEQ ID NO:8) (peptide)
# peptide: GWRGWQ
# Key:
# human IgG = type: binding; settings: peptide on Toyopearl AF-amino-650M, 30 min, room temperature
# Experimental: (§1) Measurement of IgG binding by peptide-based chromatographic adsorbents: For initial studies, 35 mg of MWRGWQ (SEQ ID NO:2)-Toyopearl, RHLGWF (SEQ ID NO:3)-Toyopearl, WQRHGI (SEQ ID NO:1)-Toyopearl, GWLHQR (SEQ ID NO:4)-Toyopearl, and HWRGWV (SEQ ID NO:18)-Toyopearl (control) resins were equilibrated in PBS pH 7.4, reaching a swollen volume of 0.1 mL, and subsequently incubated with 1 mg/mL IgG in 0.205 mg/mL CHO cell culture supernatant for 30 minutes. The resins were subsequently washed several times with PBS to remove non-specifically bound proteins. Elution was performed with 100 mM glycine buffer pH 2.5. Flowthrough and elution fractions were collected and analyzed by SDS PAGE under reducing conditions. The resulting gels were stained with Coomassie staining. Further, 25 mg of the adsorbents MWRGWQ (SEQ ID NO:2)-Toyopearl, NIFRGWQ (SEQ ID NO:21)-Toyopearl, MWRAWQ (SEQ ID NO:5)-Toyopearl, MWRGFQ (SEQ ID NO:7)-Toyopearl, MWRGWN (SEQ ID NO:22)-Toyopearl, (NorL) WRGWQ (SEQ ID NO:23)-Toyopearl, MGRGWQ (SEQ ID NO:24)-Toyopearl, MWRWQ (SEQ ID NO:6)-Toyopearl, MWRGGQ (SEQ ID NO:26)-Toyopearl, GWRGWQ (SEQ ID NO:8)-Toyopearl, WQRHGI (SEQ ID NO:1)-Toyopearl, WNRHGI (SEQ ID NO:12)-Toyopearl, WQRAGI (SEQ ID NO:28)-Toyopearl, WQRHAI (SEQ ID NO:11)-Toyopearl, WQRHGL (SEQ ID NO:9)-Toyopearl, FQRHGI (SEQ ID NO:29)-Toyopearl, and WQRHGV (SEQ ID NO:10)-Toyopearl resins were equilibrated in PBS pH 7.4, reaching a swollen volume of 0.1 mL, and subsequently incubated with 1 mg/mL IgG in PBS at pH 7.4 for 30 minutes. The amount of unbound IgG in the supernatant samples was quantified by Bradford assay and utilized to determine the IgG binding % by the peptide variants.
# A limited library of residue-by-residue changes confirmed the importance of each residue in peptides WQRHGI (SEQ ID NO:1) and MWRGWQ (SEQ ID NO:2) in reducing the binding energy between the peptide and the IgG target. […] This was accomplished by designing and constructing an ensemble of 20 variants of peptides WQRHGI (SEQ ID NO:1) and MWRGWQ (SEQ ID NO:2). Selected residues in positions 1-6 were mutated. The peptide variants were synthesized directly on Toyopearl AF-amino-650M resin via Fmoc/tBu chemistry. The resulting adsorbents were incubated with a solution of human IgG at 2 mg/mL at a ratio of 1 mL of resin per 3.5 mL of solution for 30 min at room temperature. The residual concentration of IgG in solution was determined by Bradford concentration assay of the supernatants and utilized to calculate the amounts of bound IgG per volume of resin; Table 7 reports the % binding, defined as mg IgG bound by variant/mg IgG bound by original sequence (either WQRHGI (SEQ ID NO:1) or MWRGWQ (SEQ ID NO:2))×100%, of each sequence variant.
# host cell protein (HCP) = settings: literature value; cited from earlier work
# [1] = system: human polyclonal IgG in CHO-S cell culture fluid; experiment: Static purification of IgG from CHO cell culture supernatant on peptide-Toyopearl resins, SDS-PAGE densitometry
# Experimental: as §1
# Characterization of IgG-binding peptide variants WQRHGI (SEQ ID NO:1), MWRGWQ (SEQ ID NO:2), RHLGWF (SEQ ID NO:3), and GWLHQR (SEQ ID NO:4) in competitive conditions: The four selected sequence variants were tested for their ability to purify human IgG from a CHO cell culture supernatant and found largely to mirror their in silico predictions. Even though they seemed to underperform in silico, RHLGWF (SEQ ID NO:3) and GWLHQR (SEQ ID NO:4) were tested alongside WQRHGI (SEQ ID NO:1) and MWRGWQ (SEQ ID NO:2) in these conditions in order to confirm their ability to bind IgG and examine their selectivity as predicted in silico. The feedstock was prepared by spiking human polyclonal IgG into a clarified null CHO-S cell culture fluid to obtain an IgG concentration of 1 mg/mL and a CHO HCP concentration of 0.205 mg/mL. An aliquot of 500 μL was loaded onto each peptide adsorbent in static conditions for 30 min. Following a washing step with PBS to remove loosely bound proteins, a first elution step was conducted using 0.1 M glycine buffer pH 2.5 to remove all bound proteins. Flow through fractions and pH 2.5 elution fractions were loaded neat and analyzed by SDS PAGE (FIGS. 6A-6B). The values of IgG purity in the eluted fractions were determined by densitometric analysis of the corresponding lanes on the gels, and are reported in Table 9.
# [2] = target: human polyclonal IgG (human); experiment: batch incubation of peptide-Toyopearl resin with human IgG, Bradford of unbound IgG; mg IgG bound relative to MWRGWQ
# [3] = target: human polyclonal IgG (human); experiment: batch incubation of peptide-Toyopearl resin with human IgG, Bradford of unbound IgG; mg IgG bound relative to WQRHGI
molecule,measurement,setting,value
"(NorL)WRGWQ ([Nle]WRGWQ) [ΛWRGWQ, Λ represents Nor-Leucine]",% Binding (mg IgG bound by variant/mg IgG bound by original sequence × 100%),human IgG,74.66%
Ac-HW[Cit]GWV,HCP LRV,host cell protein (HCP),2.07
FQRHGI,% Binding (mg IgG bound by variant/mg IgG bound by original sequence × 100%),human IgG,37.18%
GWRGWQ,% Binding (mg IgG bound by variant/mg IgG bound by original sequence × 100%),human IgG,78.37%
MFRGWQ,% Binding (mg IgG bound by variant/mg IgG bound by original sequence × 100%),human IgG,56.75%
MGRGWQ,% Binding (mg IgG bound by variant/mg IgG bound by original sequence × 100%),human IgG,Undetected
MW(Cit)GWQ (MW[Cit]GWQ) [MWχGWQ],% Binding (mg IgG bound by variant/mg IgG bound by original sequence × 100%),human IgG,0.48%
MWRAWQ,% Binding (mg IgG bound by variant/mg IgG bound by original sequence × 100%),human IgG,96.96%
MWRGFQ [MWRGEQ],% Binding (mg IgG bound by variant/mg IgG bound by original sequence × 100%),human IgG,89.19%
MWRGGQ,% Binding (mg IgG bound by variant/mg IgG bound by original sequence × 100%),human IgG,26.00%
MWRGWN,% Binding (mg IgG bound by variant/mg IgG bound by original sequence × 100%),human IgG,18.90%
MWRWQ,% Binding (mg IgG bound by variant/mg IgG bound by original sequence × 100%),human IgG,91.55%
RHLGWF,% Purity (IgG over total proteins),"[1]; Gel A, lane FT (flow-through)",100.00%
same,% Purity (IgG over total eluted proteins),"[1]; Gel A, lane R (pH 2.5)",52.28%
same,IgG yield,"[1]; competitive conditions, CHO cell culture supernatant",high IgG yield
same,selectivity for IgG over HCPs,"[1]; competitive conditions, in vitro",non-selective
WNRHGI,% Binding (mg IgG bound by variant/mg IgG bound by original sequence × 100%),human IgG,77.43%
WQ(Cit)HGI (WQ[Cit]HGI) [WQχHGI],% Binding (mg IgG bound by variant/mg IgG bound by original sequence × 100%),human IgG,0.95%
WQRAGI,% Binding (mg IgG bound by variant/mg IgG bound by original sequence × 100%),human IgG,62.80%
WQRHAI,% Binding (mg IgG bound by variant/mg IgG bound by original sequence × 100%),human IgG,95.43%
WQRHGL,% Binding (mg IgG bound by variant/mg IgG bound by original sequence × 100%),human IgG,99.09%
WQRHGV,% Binding (mg IgG bound by variant/mg IgG bound by original sequence × 100%),human IgG,96.04%
WQRHI,% Binding (mg IgG bound by variant/mg IgG bound by original sequence × 100%),human IgG,86.89%
B1,% Binding,[2],74.7%
B2,% Binding,[3],0.95%
B3,% Binding,[3],86.9%
B4,% Binding,[2],0.48%
B5,% Binding,[2],56.8%
B6,% Binding,[2],18.9%
B7,% Binding,[3],96%
B8,% Binding,[3],95.4%
B9,% Binding,[2],91.5%
B10,% Binding,[3],37.2%
B11,% Binding,[3],99.1%
B12,% Binding,[2],89.2%
B13,% Binding,[2],26%
B14,% Binding,[3],62.8%
B15,% Binding,[3],77.4%
B16,% Binding,[2],97%
B17,% Binding,[2],78.4%
